Source: US8785455B2, “Polymorph of linagliptin benzoate” (Sandoz AG, priority 2011, dated 2014)

Key:
[1] = dynamic water vapor sorption/desorption (moisture sorption isotherm); type: physicochemical; settings: for hygroscopicity (in words): comparison of moisture sorption isotherms, FIGS. 4 and 5; for water uptake: from about 3 to 90% relative humidity at about 25° C., w % = weight % of water in relation to total weight
Protocol: The water uptake of the crystalline forms of Linagliptin benzoate was determined by dynamic water vapor sorption/desorption. Therefore both forms were conditioned at about 28% relative humidity (RH) and the initial water content was determined by Karl-Fischer-titration. Then a moisture sorption experiment was performed with an SPSx-1μ moisture sorption analyzer (Projekt Messtechnik, Ulm) by stepwise increasing the RH in the range of about 3% RH to about 90% RH within approximately 2.5 days at 25±0.1° C.

[2] = stability upon storage at conditions of high relative humidity; type: physicochemical

| hygroscopicity (in words) ([1]; listed as crystalline form of Linagliptin benzoate of WO2010/072776 A1) | water uptake [1] | stability upon storage [2] | Compound | hygroscopicity (in words) [1] |
| --- | --- | --- | --- | --- |
| quite hygroscopic | about 9.5 w % |  | CC#CCn1c(N2CCC[C@@H](N)C2)nc2c1c(=O)n(Cc1nc(C)c3ccccc3n1)c(=O)n2C [crystalline Linagliptin benzoate of WO2010/072776 A1] [reference compound] |  |
|  | about 2.0 w % | more stable than form I | CC#CCn1c(N2CCC[C@@H](N)C2)nc2c1c(=O)n(Cc1nc(C)c3ccccc3n1)c(=O)n2C [Linagliptin benzoate form II, Linagliptin benzoate] | significantly less hygroscopic than crystalline Linagliptin benzoate of WO2010/072776 A1 |
